Structures are written as SMILES. Converted amounts (≈) assume the structure as drawn. Some results are limits rather than exact numbers.

In assay [1] the test system is N. gonorrhoeae ATCC 49226. Kind of assay: Liquid broth MIC in Fastidious broth. Conditions: Neisseria gonorrhoeae, ATCC49226, read-out: Minimum Inhibitory Concentration (MIC), N. gonorrhoeae ATCC 49226.
Experimental: Additional antibacterial testing of the series was performed in 8 reference strains of N. gonorrhoeae (ATCC 49226, FA1090, MS 11, WHO G, WHO L, WHO M, WHO K, WHO X, WHO Z, WHO Q, CDC-0197). ATCC 49226, FA1090, MS11, WHO G, WHO L, and WHO M produce wild type or wild-type like PBP2. WHO K, WHO X, WHO Z, WHO Q, and CDC-0197 produce mosaic PBP2. Liquid broth-based assays were used for antibacterial testing of PBP inhibitors in Neisseria gonorrhoeae. Briefly, cryo-preserved bacterial cultures of clinical strains were streaked for isolation on Chocolate Agar (72 g/L (2×) GC Agar Base (BD #228950) and 2% (2×) Hemoglobin was autoclaved at 121° C. for 20 minutes to sterilize. Once cooled to ˜50° C. the 2×GC Agar Base and 2× Hemoglobin solutions are combined and 1% IsoVitaleX Enrichment (BD #211876) was added to the solution). Strains were incubated at 36° C. and 5% CO2 to allow growth of colonies, 24 hours before inoculum preparation. 2-fold serial dilutions of test compounds were conducted in a 96 well plate with a final volume of 75 μL per well at 2-fold the final desired concentration in Fastidious broth (Remel #R07664). For preparation of assay inoculum, a direct suspension was prepared by aseptically swabbing 10-15 colonies from agar plates into culture tubes containing 2 mL of fresh sterile saline. After the dilution plates were set up, direct suspensions were then diluted in a cuvette containing sterile saline and the optical density was measured at 600 nm. Inocula were diluted such that 75 μL of this culture in Fastidious broth results in a starting bacterial concentration of 5×10^5 CFU/mL when added to the dilution plates. The plates were incubated for ˜24 hours at 36° C. and 5% CO2.
The subject of assay [2] is N. gonorrhoeae WHO Z. The assay is described as follows: Liquid broth MIC in Fastidious broth. Conditions: Neisseria gonorrhoeae, read-out: Minimum Inhibitory Concentration (MIC), N. gonorrhoeae WHO Z.
The target in assay [3] is T1, PBP3 from Pseudomonas aeruginosa (PAO1) (Pseudomonas aeruginosa, UniProt G3XD46).
T1 construct: made in house
The assay is described as follows: Bocillin-FL fluorescence polarization competition binding, P. aeruginosa PBP3. Conditions: Binding affinity to P. aeruginosa PBP3; fluorescence polarization competition binding assay using Bocillin-FL; read-out: P. aeruginosa PBP3 Potency. The procedure, abridged:
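Purified PBP was preincubated with inhibitor (E. coli PBP3 1.5 μM, 30 min; P. aeruginosa PBP3 0.75 μM, A. baumannii PBP3 0.2 μM and PBP1a 1 μM, 15 min), then Bocillin-FL (0.1 μM; 0.05 μM for PBP1a) added and FP read up to 60 min. EC50 = 50% loss of bound probe.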

For assay [4], the target named is T2, PBP3 from Escherichia coli (K-12) (Escherichia coli, UniProt P0AD68).
T2 construct: made in house
The assay is described as follows: Bocillin-FL fluorescence polarization competition binding, E. coli PBP3. The source says:
To determine the ability of boronic acid-based test PBP inhibitors to bind Penicillin Binding Proteins (PBPs), Bocillin-FL (fluorescently-labeled penicillin V; ThermoFisher Scientific) was used in a fluorescence polarization (FP) competition binding assay to assess inhibitor binding to PBP3 from Escherichia coli (K-12), PBP3 from Pseudomonas aeruginosa (PAO1), PBP1a and PBP3 from Acinetobacter baumannii (ATCC 19606), and PBP2 from Neisseria gonorrhoeae (FA19). PBPs were cloned and purified as described previously (E. coli PBP3, King, D. T, et al., ACS Infectious Diseases 2015, 1, 175-184; P. aeruginosa PBP3, Han et. al., PNAS 2010, 107 (51), 22002-22007; A. baumannii PBPs, Penwell et. al., Antimicrob. Agents Chemother. 2015, 59 (3), 1680-1689; N. gonorrhoeae PBP2, Singh et. al., J. Biol. Chem. 2019, 294 (38), 14020-14032). To establish assay conditions for competition binding, enzyme titration/saturation binding experiments were initially performed. Bocillin-FL was prepared at 0.2 μM in a buffer comprised of 50 mM Hepes (pH 8.0), 300 mM NaCl and 10% (v/v) glycerol for reactions with E. coli, P. aeruginosa and N. gonorrhoeae PBPs, and 25 mM Tris (pH 8.0), 200 mM NaCl, 10% (v/v) glycerol and 0.005% (v/v) Tween 20 for reactions with A. baumannii PBPs. Saturation binding was performed by mixing 40 μl of PBP solutions ranging in concentrations from 0-24 μM with 40 μl of the 0.2 μM Bocillin-FL solution, in individual wells of a black 384-well microplate. FP was measured immediately upon mixing (Excitation, 490 nm; Emission, 520 nm; g-factor, 0.96), using a Cytation3 (BioTek) microplate reader and measured continuously for up to 120 minutes. The FP response stabilized after 15 minutes for P. aeruginosa and A. baumannii PBP3, 30 minutes for E. coli PBP3 and A. baumannii PBP1a, and less than 1 minute for N. gonorrhoeae PBP2. […] The competition binding assay (80 μl final volume) was validated using beta-lactams and PBPs at final concentrations of: 1.5 μM for E. coli PBP3; 0.75 μM for P. aeruginosa PBP3; 1 μM for A. baumannii PBP1a; 0.2 μM for A. baumannii PBP3; and 0.25 μM for N. gonorrhoeae PBP2. Bocillin-FL was at 0.1 μM (0.05 μM with A. baumannii PBP1a) and beta-lactam concentrations ranged from 0-1,000 μM. E. coli PBP3 was incubated with increasing concentrations of ampicillin in a black 384-well microplate (Corning) for 30 minutes. P. aeruginosa PBP3 was incubated for 15 minutes with aztreonam, whereas A. baumannii PBP1a and PBP3 were incubated for 15 minutes with meropenem, and then Bocillin-FL was added followed immediately by the FP measurement for up to 60 minutes. […] The beta-lactam potency was reported as the concentration of beta-lactam required to reduce the amount of PBP bound-Bocillin-FL by 50% (EC50). […] The EC50 of aztreonam was determined to be <0.5 μM for P. aeruginosa PBP3. […] Binding assays for boronic acid PBP inhibitors were performed in an identical fashion for the respective PBPs.
A general note: Polarisation of emitted light reports the rotation of a fluorescent probe.

Assay [5] has as its system N. gonorrhoeae MS11. The assay is described as follows: Liquid broth MIC in Fastidious broth. The following applies: Neisseria gonorrhoeae, MS11, read-out: Minimum Inhibitory Concentration (MIC), N. gonorrhoeae MS11.
Assay [6] concerns N. gonorrhoeae WHO M. Kind of assay: Liquid broth MIC in Fastidious broth. Conditions: Neisseria gonorrhoeae, read-out: Minimum Inhibitory Concentration (MIC), N. gonorrhoeae WHO M.
In assay [7] the test system is N. gonorrhoeae FA1090. Kind of assay: Liquid broth MIC in Fastidious broth. The following applies: Neisseria gonorrhoeae, FA1090, read-out: Minimum Inhibitory Concentration (MIC), N. gonorrhoeae FA 1090.
Assay [8] deals with K. pneumoniae 848844. The assay is described as follows: microbe, parasite or virus in culture. Type of assay: cell-based. Conditions: Klebsiella pneumoniae, 848844, read-out: MIC K. pneumoniae 848844.
The test system of assay [9] is E. coli AG100A. The assay is described as follows: Broth microdilution MIC in CAMHB. Type of assay: cell-based. Conditions: Escherichia coli, read-out: MIC E. coli AG100A. Background: In broth dilution the organism is exposed to a series of concentrations in liquid medium.
Assay [10] relates to K. pneumoniae UMM. The assay is described as follows: microbe, parasite or virus in culture. The assay is classed as cell-based. The following applies: Klebsiella pneumoniae, read-out: MIC K. pneumoniae UMM.
The subject of assay [11] is E. coli D22. Kind of assay: microbe, parasite or virus in culture. Type of assay: cell-based. The following applies: Escherichia coli, D22, read-out: MIC E. coli D22.
Assay [12] concerns P. aeruginosa ATCC 27853. Kind of assay: microbe, parasite or virus in culture. The assay is classed as cell-based. Conditions: Pseudomonas aeruginosa, ATCC27853, read-out: MIC P. aeruginosa ATCC 27853.
The subject of assay [13] is E. coli AG100. The assay is described as follows: microbe, parasite or virus in culture. The assay is classed as cell-based. The following applies: Escherichia coli, AG100, read-out: MIC E. coli AG100.

T1 sequence (G3XD46 whole entry): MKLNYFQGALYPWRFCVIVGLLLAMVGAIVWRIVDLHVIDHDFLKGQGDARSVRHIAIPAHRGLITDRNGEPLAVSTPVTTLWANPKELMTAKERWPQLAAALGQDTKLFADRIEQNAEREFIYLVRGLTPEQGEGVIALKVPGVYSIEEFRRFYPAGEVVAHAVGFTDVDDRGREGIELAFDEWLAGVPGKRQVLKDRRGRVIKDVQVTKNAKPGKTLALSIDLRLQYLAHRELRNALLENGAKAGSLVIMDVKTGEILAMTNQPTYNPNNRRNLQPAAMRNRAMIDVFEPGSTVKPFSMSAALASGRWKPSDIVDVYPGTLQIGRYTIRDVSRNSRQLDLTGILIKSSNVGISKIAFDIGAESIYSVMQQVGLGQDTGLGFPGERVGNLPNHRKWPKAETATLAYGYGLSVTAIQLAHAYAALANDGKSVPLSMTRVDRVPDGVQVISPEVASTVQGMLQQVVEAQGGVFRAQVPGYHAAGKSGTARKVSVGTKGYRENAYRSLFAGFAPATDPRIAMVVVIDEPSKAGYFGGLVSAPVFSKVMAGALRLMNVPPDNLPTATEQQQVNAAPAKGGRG
T2 sequence (P0AD68 1-577): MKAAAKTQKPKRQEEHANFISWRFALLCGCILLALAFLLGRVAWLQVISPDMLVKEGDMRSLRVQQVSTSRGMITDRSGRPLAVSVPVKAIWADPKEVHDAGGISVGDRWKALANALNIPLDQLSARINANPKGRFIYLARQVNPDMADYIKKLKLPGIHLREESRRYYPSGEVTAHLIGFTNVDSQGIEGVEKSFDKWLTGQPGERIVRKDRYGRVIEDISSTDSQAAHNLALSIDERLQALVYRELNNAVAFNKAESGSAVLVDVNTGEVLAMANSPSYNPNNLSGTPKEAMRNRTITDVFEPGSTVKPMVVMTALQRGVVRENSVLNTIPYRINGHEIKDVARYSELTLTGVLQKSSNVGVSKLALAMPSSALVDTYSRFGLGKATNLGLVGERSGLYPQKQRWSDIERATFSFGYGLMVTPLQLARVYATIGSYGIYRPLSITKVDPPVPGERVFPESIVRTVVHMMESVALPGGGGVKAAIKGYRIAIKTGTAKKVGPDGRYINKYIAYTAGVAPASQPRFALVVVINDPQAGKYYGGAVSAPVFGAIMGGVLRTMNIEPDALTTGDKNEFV

The term EC50 denotes the midpoint of the concentration-response curve. High values mean weaker potency, low ones greater potency. With `O=C(O)c1c(F)ccc2c1OB(O)[C@@H](NC(=O)C(NC(=O)N1CCN(Cc3ccc(O)c(O)c3Cl)C(=O)C1=O)c1ccc(P(=O)(O)O)c(F)c1)C2` (stereo partly drawn) [Example 23, (3R)-3-(2-(4-(2-chloro-3,4-dihydroxybenzyl)-2,3-dioxopiperazine-1-carboxamido)-2-(3-fluoro-4-phosphonophenyl)acetamido)-7-fluoro-2-hydroxy-3,4-dihydro-2H-benzo[e][1,2]oxaborinine-8-carboxylic acid], the MIC in assay [1], in assay [2], in assay [5], in assay [6] and in assay [7] was under 1 µg/mL each time. Also, the IC50 in assay [3] is under 10 µM. Also, the half-maximal effective concentration (EC50) in [4] was under 10 µM.

For `O=C(O)c1cccc2c1OB(O)[C@@H](NC(=O)C(NC(=O)N1CCN(Cc3ccc(O)c(O)c3Cl)C(=O)C1=O)c1ccc(P(=O)(O)O)cc1)C2` (stereo partly drawn) [Example 24, (3R)-3-(2-(4-(2-chloro-3,4-dihydroxybenzyl)-2,3-dioxopiperazine-1-carboxamido)-2-(4-phosphonophenyl)acetamido)-2-hydroxy-3,4-dihydro-2H-benzo[e][1,2]oxaborinine-8-carboxylic acid], the MIC in assay [1] was under 1 µg/mL; in assay [2] it was 1 to 2 µg/mL (≈ 1.4 to 2.79 µM); in assay [5], under 1 µg/mL; in assay [6], under 1 µg/mL; in assay [7] it was under 1 µg/mL. In assay [3], the IC50 was under 10 µM. Moreover, the EC50 in [4] was under 10 µM.

As to `O=C(NCCN1CCN(C(=O)NC(C(=O)N[C@H]2Cc3ccc(F)c(C(=O)O)c3OB2O)c2ccc(P(=O)(O)O)cc2)C(=O)C1=O)c1ccc(O)c(O)c1Cl` (stereo partly drawn) [Example 120, (3R)-3-(2-(4-(2-(2-chloro-3,4-dihydroxybenzamido)ethyl)-2,3-dioxopiperazine-1-carboxamido)-2-(4-phosphonophenyl)acetamido)-7-fluoro-2-hydroxy-3,4-dihydro-2H-benzo[e][1,2]oxaborinine-8-carboxylic acid], the IC50 in assay [3] is under 10 µM. This compound had an EC50 in assay [4] of under 10 µM.

For the compound `O=C(O)c1c(F)ccc2c1OB(O)[C@@H](NC(=O)C(NC(=O)N1CCN(Cc3cc(F)c(O)c(O)c3Cl)C(=O)C1=O)c1ccc(P(=O)(O)O)cc1)C2` (stereo partly drawn) [Example 45, (3R)-3-(2-(4-(2-chloro-5-fluoro-3,4-dihydroxybenzyl)-2,3-dioxopiperazine-1-carboxamido)-2-(4-phosphonophenyl)acetamido)-7-fluoro-2-hydroxy-3,4-dihydro-2H-benzo[e][1,2]oxaborinine-8-carboxylic acid], the MIC is under 1 µg/mL in [1]; 1 to 2 µg/mL (≈ 1.33 to 2.66 µM) in [2]; under 1 µg/mL in assay [5]; under 1 µg/mL in assay [6]; under 1 µg/mL in assay [7]. In assay [3], the IC50 is under 10 µM. This compound also gave a half-maximal effective concentration (EC50) in assay [4] of under 10 µM.

As to `O=C(O)c1c(F)ccc2c1OB(O)[C@@H](NC(=O)C(NC(=O)N1CCN(Cc3ccc(O)c(O)c3Cl)C1=O)c1ccc(P(=O)(O)O)cc1)C2` (stereo partly drawn) [Example 46, (3R)-3-(2-(3-(2-chloro-3,4-dihydroxybenzyl)-2-oxoimidazolidine-1-carboxamido)-2-(4-phosphonophenyl)acetamido)-7-fluoro-2-hydroxy-3,4-dihydro-2H-benzo[e][1,2]oxaborinine-8-carboxylic acid], the MIC in [1], in assay [2], in assay [5], in [6] and in assay [7] was under 1 µg/mL throughout. Also, in [3], the IC50 is under 10 µM. In [4], this compound came in with a concentration for a half-maximal effect (EC50) of under 10 µM.

Turning to `O=C(O)c1c(F)ccc2c1OB(O)[C@@H](NC(=O)C(NC(=O)N1CCN(Cc3ccc(O)c(O)c3Cl)C(=O)C1=O)c1ccc(P(=O)(O)O)cc1)C2` (stereo partly drawn) [Example 8, (3R)-3-(2-(4-(2-chloro-3,4-dihydroxybenzyl)-2,3-dioxopiperazine-1-carboxamido)-2-(4-phosphonophenyl)acetamido)-7-fluoro-2-hydroxy-3,4-dihydro-2H-benzo[e][1,2]oxaborinine-8-carboxylic acid], the MIC is under 1 µg/mL in assay [1]; over 128 µg/mL in assay [8]; under 1 µg/mL in assay [2]; under 1 µg/mL in assay [5]; under 1 µg/mL in assay [9]; 2 to 4 µg/mL (≈ 2.72 to 5.44 µM) in assay [10]. The MIC in [11], in [12], in [6] and in assay [7] was under 1 µg/mL each time. In assay [3], the IC50 is under 10 µM. The same compound displayed an EC50 in assay [4] of under 10 µM.

Take `CCN1CCN(C(=O)N[C@@H](C(=O)N[C@H]2Cc3cccc(C(=O)O)c3OB2O)c2ccc(P(=O)(O)O)c(F)c2)C(=O)C1=O` (single isomer, unassigned) [Example 7]: the MIC in assay [1] was under 1 µg/mL; in assay [8], over 128 µg/mL; in assay [2] it was under 1 µg/mL; in [5], under 1 µg/mL; in assay [9], 8 to 16 µg/mL (≈ 13.2 to 26.4 µM); in assay [10], 32 to 64 µg/mL (≈ 52.8 to 106 µM). The MIC was 2 to 4 µg/mL (≈ 3.3 to 6.6 µM) in assay [11]; 8 to 16 µg/mL (≈ 13.2 to 26.4 µM) in assay [13]; 32 to 64 µg/mL (≈ 52.8 to 106 µM) in [12]; under 1 µg/mL in assay [6]; under 1 µg/mL in assay [7]. The same compound displayed an EC50 in assay [4] of under 10 µM.

Take `O=C(N[C@@H](C(=O)N[C@H]1Cc2cccc(C(=O)O)c2OB1O)c1ccc(P(=O)(O)O)cc1)c1ccc(O)c(O)c1Cl` [Example 49, (R)-3-((R)-2-(2-chloro-3,4-dihydroxybenzamido)-2-(4-phosphonophenyl)acetamido)-2-hydroxy-3,4-dihydro-2H-benzo[e][1,2]oxaborinine-8-carboxylic acid]: the IC50 in assay [3] is over 250 µM. The half-maximal effective concentration (EC50) in assay [4] was over 250 µM.

Values taken from patent US20240270762A1, “PENICILLIN-BINDING PROTEIN INHIBITORS” (priority 2021, published 2024).
